Measured values published in ChEMBL document CHEMBL5390317, “Novel Indane-Containing NBTIs with Potent Anti-Gram-Negative Activity and Minimal hERG Inhibition” (ACS Med Chem Lett, 2023).
Values after ≈ are worked out from the molar mass of the structure shown.

How the values were obtained:
[1] = molecular target: Voltage-gated inwardly rectifying potassium channel KCNH2 (Homo sapiens, UniProt Q12809); assay: (§1) Inhibition of hERG potassium channel expressed in CHO cells by electrophysiological patch clamp assay; format: toxicity, cell-based; conditions: for IC20: human, cho
Sequence of Voltage-gated inwardly rectifying potassium channel KCNH2 (Q12809 whole entry): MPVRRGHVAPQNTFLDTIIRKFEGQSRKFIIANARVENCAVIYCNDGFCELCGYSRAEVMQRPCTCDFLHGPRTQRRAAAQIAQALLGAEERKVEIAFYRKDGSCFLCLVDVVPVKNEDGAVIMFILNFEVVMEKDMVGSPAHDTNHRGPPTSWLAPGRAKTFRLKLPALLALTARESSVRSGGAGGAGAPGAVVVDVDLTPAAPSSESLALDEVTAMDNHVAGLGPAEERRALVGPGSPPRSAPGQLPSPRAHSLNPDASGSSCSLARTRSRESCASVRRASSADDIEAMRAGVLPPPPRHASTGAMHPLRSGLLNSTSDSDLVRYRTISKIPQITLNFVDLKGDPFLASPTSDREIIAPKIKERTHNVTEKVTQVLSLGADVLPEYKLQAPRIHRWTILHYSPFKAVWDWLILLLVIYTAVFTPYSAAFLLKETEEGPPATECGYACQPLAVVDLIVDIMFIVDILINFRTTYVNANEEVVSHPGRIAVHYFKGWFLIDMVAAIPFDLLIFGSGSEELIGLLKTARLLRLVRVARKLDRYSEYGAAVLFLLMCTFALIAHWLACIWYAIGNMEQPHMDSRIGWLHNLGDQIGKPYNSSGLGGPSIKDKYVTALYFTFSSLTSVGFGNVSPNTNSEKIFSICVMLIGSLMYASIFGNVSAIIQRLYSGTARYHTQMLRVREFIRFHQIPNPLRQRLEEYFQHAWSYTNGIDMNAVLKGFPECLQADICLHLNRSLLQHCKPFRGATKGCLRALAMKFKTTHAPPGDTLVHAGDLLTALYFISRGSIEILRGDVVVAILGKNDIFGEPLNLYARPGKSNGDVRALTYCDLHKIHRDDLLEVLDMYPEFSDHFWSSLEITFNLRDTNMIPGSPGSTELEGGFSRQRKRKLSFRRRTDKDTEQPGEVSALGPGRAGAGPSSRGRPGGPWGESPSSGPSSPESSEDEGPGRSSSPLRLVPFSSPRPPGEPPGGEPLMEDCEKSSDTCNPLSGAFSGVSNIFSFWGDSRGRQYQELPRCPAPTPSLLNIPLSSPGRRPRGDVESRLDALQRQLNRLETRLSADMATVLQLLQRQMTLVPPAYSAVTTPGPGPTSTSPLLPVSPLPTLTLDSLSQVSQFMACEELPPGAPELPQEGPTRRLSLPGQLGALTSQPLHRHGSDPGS

Pseudomonas aeruginosa [2] = assay: Antibacterial activity against Pseudomonas aeruginosa NCTC 11451 assessed as inhibition in bacterial growth incubated for 20 to 24 hrs by CLSI based broth microdilution method; format: functional
Escherichia coli [3] = assay: Antibacterial activity against Escherichia coli ATCC BAA-2340 assessed as inhibition in bacterial growth incubated for 20 to 24 hrs by CLSI based broth microdilution method; format: functional
Escherichia coli [4] = assay: Antibacterial activity against Escherichia coli ATCC 35218 assessed as inhibition in bacterial growth incubated for 20 to 24 hrs by CLSI based broth microdilution method; format: functional
Klebsiella pneumoniae [5] = assay: Antibacterial activity against Klebsiella pneumoniae ATCC 700603 assessed as inhibition in bacterial growth incubated for 20 to 24 hrs by CLSI based broth microdilution method; format: functional
Acinetobacter baumannii [6] = assay: Antibacterial activity against Acinetobacter baumannii ATCC 51432 assessed as inhibition in bacterial growth incubated for 20 to 24 hrs by CLSI based broth microdilution method; format: functional
[7] = Inhibition of Escherichia coli topoisomerase 4 incubated for 120 mins by Transcreener ADP2 FI assay
Klebsiella pneumoniae [8] = assay: Antibacterial activity against Klebsiella pneumoniae ATCC BAA-2146 assessed as inhibition in bacterial growth incubated for 20 to 24 hrs by CLSI based broth microdilution method; format: functional
DNA gyrase = DNA gyrase (Escherichia coli, UniProt P0AES4+P0AES6); assay: Inhibition of Escherichia coli DNA gyrase incubated for 80 mins by Transcreener ADP2 FI assay; format: protein-complex assay
Staphylococcus aureus [9] = assay: Antibacterial activity against Staphylococcus aureus ATCC BAA-1556 assessed as inhibition in bacterial growth incubated for 20 to 24 hrs by CLSI based broth microdilution method; format: functional
Escherichia coli [10] = assay: Antibacterial activity against Escherichia coli K-12 BW25113 assessed as inhibition in bacterial growth incubated for 20 to 24 hrs by CLSI based broth microdilution method; format: functional
Staphylococcus aureus [11] = assay: Antibacterial activity against Staphylococcus aureus ATCC 29213 assessed as inhibition in bacterial growth incubated for 20 to 24 hrs by CLSI based broth microdilution method; format: functional; conditions: time 20-24 hrs
Acinetobacter baumannii [12] = assay: Antibacterial activity against Acinetobacter baumannii ATCC BAA-747 assessed as inhibition in bacterial growth incubated for 20 to 24 hrs by CLSI based broth microdilution method; format: functional
Pseudomonas aeruginosa [13] = assay: Antibacterial activity against Pseudomonas aeruginosa NCTC 13437 assessed as inhibition in bacterial growth incubated for 20 to 24 hrs by CLSI based broth microdilution method; format: functional
Klebsiella pneumoniae [14] = assay: Antibacterial activity against Klebsiella pneumoniae ATCC BAA-1705 assessed as inhibition in bacterial growth incubated for 20 to 24 hrs by CLSI based broth microdilution method; format: functional; conditions: time 20-24 hrs
Escherichia coli [15] = assay: Antibacterial activity against Escherichia coli K-12 BW25113 deltaTolC assessed as inhibition in bacterial growth incubated for 20 to 24 hrs by CLSI based broth microdilution method; format: functional; conditions: time 20-24 hrs
Acinetobacter baumannii [16] = assay: Antibacterial activity against Acinetobacter baumannii ATCC 19606 assessed as inhibition in bacterial growth incubated for 20 to 24 hrs by CLSI based broth microdilution method; format: functional; conditions: time 20-24 hrs
Escherichia coli [17] = assay: Antibacterial activity against Escherichia coli ATCC 25922 assessed as inhibition in bacterial growth incubated for 20 to 24 hrs by CLSI based broth microdilution method; format: functional; conditions: time 20-24 hrs
Pseudomonas aeruginosa [18] = assay: Antibacterial activity against Pseudomonas aeruginosa ATCC 27853 assessed as inhibition in bacterial growth incubated for 20 to 24 hrs by CLSI based broth microdilution method; format: functional; conditions: time 20-24 hrs
Klebsiella pneumoniae [19] = assay: Antibacterial activity against Klebsiella pneumoniae ATCC 10031 assessed as inhibition in bacterial growth incubated for 20 to 24 hrs by CLSI based broth microdilution method; format: functional; conditions: time 20-24 hrs
hERG (KCNH2) = hERG (KCNH2) (Homo sapiens, UniProt Q12809); assay: as §1; format: toxicity, cell-based; conditions: human, CHO cells expressing hERG
Sequence of hERG (KCNH2) (Q12809 whole entry): as above

[20] = Escherichia coli, K-12 BW25113, time 20-24 hrs, read-out: MIC
[21] = Pseudomonas aeruginosa, NCTC 11451, time 20-24 hrs, read-out: MIC
[22] = Escherichia coli, ATCC BAA-2340, time 20-24 hrs, read-out: MIC
[23] = Escherichia coli, ATCC 35218, time 20-24 hrs, read-out: MIC
[24] = Klebsiella pneumoniae, ATCC 700603, time 20-24 hrs, read-out: MIC
[25] = Acinetobacter baumannii, ATCC 51432, time 20-24 hrs, read-out: MIC
[26] = Staphylococcus aureus, ATCC 29213, read-out: MIC
[27] = Klebsiella pneumoniae, ATCC BAA-2146, time 20-24 hrs, read-out: MIC
[28] = Acinetobacter baumannii, ATCC BAA-747, time 20-24 hrs, read-out: MIC
[29] = Pseudomonas aeruginosa, NCTC 13437, time 20-24 hrs, read-out: MIC
[30] = Staphylococcus aureus, ATCC BAA-1556, time 20-24 hrs, read-out: MIC

Row | Structure (SMILES) | MIC (Pseudomonas aeruginosa [2]; time 20-24 hrs) | MIC (Escherichia coli [3]; time 20-24 hrs) | MIC (Escherichia coli [4]; time 20-24 hrs) | MIC (Klebsiella pneumoniae [5]; time 20-24 hrs) | IC50 [7] | IC50 (DNA gyrase) | MIC (Pseudomonas aeruginosa [2]; [21]) | MIC (Escherichia coli [3]; [22]) | MIC (Escherichia coli [4]; [23]) | MIC (Klebsiella pneumoniae [5]; [24]) | MIC (Escherichia coli [15]) | MIC (Acinetobacter baumannii [6]; [25]) | MIC (Staphylococcus aureus [11]; [26]) | MIC (Klebsiella pneumoniae [8]; [27]) | MIC (Acinetobacter baumannii [12]; [28]) | MIC (Klebsiella pneumoniae [19]) | MIC (Pseudomonas aeruginosa [13]; [29]) | MIC (Staphylococcus aureus [9]; [30]) | IC50 [1] | IC20 [1] | further results
1 | C[C@H](C(=O)Nc1cc(F)c2c(c1)CC(CNCCC1CN(c3cnc4c(n3)NC(=O)CO4)C(=O)O1)C2)N(C)C (stereo in doubt; 2g) | 2 µg/mL (≈ 3.69 µM) | 0.125 µg/mL (≈ 0.231 µM) | 0.125 µg/mL (≈ 0.231 µM) | 1 µg/mL (≈ 1.85 µM) | 0.013 µM | 0.026 µM | – | – | – | – | – | – | – | – | – | – | – | – | 251 µM | 81 µM | MIC (Acinetobacter baumannii [6]; time 20-24 hrs): 4 µg/mL (≈ 7.39 µM); MIC (Klebsiella pneumoniae [8]; time 20-24 hrs): 8 µg/mL (≈ 14.8 µM); MIC (Staphylococcus aureus [9]; time 20-24 hrs): 0.5 µg/mL (≈ 0.923 µM)
2 | C[C@@H](C(=O)Nc1cc(F)c2c(c1)CC(CNCCC1CN(c3cnc4c(n3)NC(=O)CO4)C(=O)O1)C2)N(C)C (stereo in doubt; 2j) | – | 0.25 µg/mL (≈ 0.462 µM) | 0.25 µg/mL (≈ 0.462 µM) | – | – | – | – | – | – | – | – | – | – | – | – | – | – | – | 178 µM | 66 µM | MIC (Escherichia coli [10]; time 20-24 hrs): 0.125 µg/mL (≈ 0.231 µM); MIC (Staphylococcus aureus [11]): 0.25 µg/mL (≈ 0.462 µM); MIC (Acinetobacter baumannii [12]; time 20-24 hrs): 0.5 µg/mL (≈ 0.923 µM); MIC (Pseudomonas aeruginosa [13]; time 20-24 hrs): 2 µg/mL (≈ 3.69 µM)
3 | O=C(O)COc1cc(F)c2c(c1)CC(CNCCC1CN(c3ccc4c(n3)NC(=O)CO4)C(=O)O1)C2 (stereo not given) | – | – | – | – | 0.37 µM | 0.6 µM | > 64 µg/mL | > 64 µg/mL | > 64 µg/mL | > 64 µg/mL | 8 µg/mL (≈ 16 µM) | > 64 µg/mL | > 64 µg/mL | > 64 µg/mL | > 64 µg/mL | 16 µg/mL (≈ 32 µM) | > 64 µg/mL | > 64 µg/mL | – | – | MIC (Escherichia coli [10]; [20]): > 64 µg/mL; MIC (Klebsiella pneumoniae [14]): > 64 µg/mL; MIC (Acinetobacter baumannii [16]): > 64 µg/mL; MIC (Escherichia coli [17]): > 64 µg/mL; MIC (Pseudomonas aeruginosa [18]): > 64 µg/mL

More lines, main results first:

Row | MIC (Pseudomonas aeruginosa [2]; time 20-24 hrs) | MIC (Escherichia coli [3]; time 20-24 hrs) | MIC (Escherichia coli [4]; time 20-24 hrs) | MIC (Klebsiella pneumoniae [5]; time 20-24 hrs) | IC50 [7] | IC50 (DNA gyrase) | MIC (Pseudomonas aeruginosa [2]; [21]) | MIC (Escherichia coli [3]; [22]) | MIC (Escherichia coli [4]; [23]) | MIC (Klebsiella pneumoniae [5]; [24]) | MIC (Escherichia coli [15]) | MIC (Acinetobacter baumannii [6]; [25]) | MIC (Staphylococcus aureus [11]; [26]) | MIC (Klebsiella pneumoniae [8]; [27]) | MIC (Acinetobacter baumannii [12]; [28]) | MIC (Klebsiella pneumoniae [19]) | MIC (Pseudomonas aeruginosa [13]; [29]) | MIC (Staphylococcus aureus [9]; [30]) | Structure (SMILES) | IC50 [1] | IC20 [1] | further results
4 | – | – | – | – | 0.15 µM | 1.1 µM | > 64 µg/mL | 64 µg/mL (≈ 116 µM) | 32 µg/mL (≈ 57.8 µM) | > 64 µg/mL | 1 µg/mL (≈ 1.81 µM) | > 64 µg/mL | 64 µg/mL (≈ 116 µM) | > 64 µg/mL | > 64 µg/mL | > 64 µg/mL | 64 µg/mL (≈ 116 µM) | > 64 µg/mL | CN(C(=O)CN1CCC1)c1cc(F)c2c(c1)CC(CNCCC1CN(c3cnc4c(n3)NC(=O)CO4)C(=O)O1)C2 (stereo not given) | – | – | MIC (Escherichia coli [10]; [20]): 16 µg/mL (≈ 28.9 µM); MIC (Klebsiella pneumoniae [14]): > 64 µg/mL; MIC (Acinetobacter baumannii [16]): > 64 µg/mL; MIC (Escherichia coli [17]): 32 µg/mL (≈ 57.8 µM); MIC (Pseudomonas aeruginosa [18]): 64 µg/mL (≈ 116 µM)
5 | – | – | – | – | – | – | 4 µg/mL (≈ 7.39 µM) | 0.125 µg/mL (≈ 0.231 µM) | 0.125 µg/mL (≈ 0.231 µM) | 2 µg/mL (≈ 3.69 µM) | ≤ 0.06 µg/mL | 8 µg/mL (≈ 14.8 µM) | 0.25 µg/mL (≈ 0.462 µM) | 8 µg/mL (≈ 14.8 µM) | 0.25 µg/mL (≈ 0.462 µM) | ≤ 0.06 µg/mL | 2 µg/mL (≈ 3.69 µM) | 1 µg/mL (≈ 1.85 µM) | C[C@@H](C(=O)Nc1cc(F)c2c(c1)CC(CNCCC1CN(c3cnc4c(n3)NC(=O)CO4)C(=O)O1)C2)N(C)C (stereo in doubt; 2i) | 105 µM | – | MIC (Escherichia coli [10]; time 20-24 hrs): <=0.06 ug ml-1; IC20 (hERG (KCNH2)): 33 µM
6 | 4 µg/mL (≈ 7.39 µM) | – | – | 2 µg/mL (≈ 3.69 µM) | – | – | – | – | – | – | – | – | – | – | – | – | – | – | C[C@H](C(=O)Nc1cc(F)c2c(c1)CC(CNCCC1CN(c3cnc4c(n3)NC(=O)CO4)C(=O)O1)C2)N(C)C (stereo in doubt; 2h) | 126 µM | 55 µM | MIC (Acinetobacter baumannii [6]; time 20-24 hrs): 8 µg/mL (≈ 14.8 µM); MIC (Acinetobacter baumannii [12]; time 20-24 hrs): 0.125 µg/mL (≈ 0.231 µM); MIC (Pseudomonas aeruginosa [13]; time 20-24 hrs): 4 µg/mL (≈ 7.39 µM); MIC (Staphylococcus aureus [9]; time 20-24 hrs): 1 µg/mL (≈ 1.85 µM)
